The source of these data is patent US12071624B2, “Antisense oligonucleotide targeting ARL4C molecule, and nucleic acid drug using antisense oligonucleotide” (OSAKA UNIVERSITY, priority 2018, dated 2024).

The subject of this series is A549/Luc cells. As to the kind of experiment: Xenograft orthotopic transplantation model using lung cancer cells. The series is classed as in vivo, mouse. Here is the method: Eight-week-old male nude mice (BALB/cAJcl-nu/nu, CLEA Japan, Inc.) were intraperitoneally injected with medetomidine (0.75 mg/kg), midazolam (4 mg/kg), and butorphanol (5 mg/kg) so as to be anesthetized. The xenograft orthotopic transplantation model was formed by transplanting human lung cancer cells into the left lungs of mice in the following order. A549/Luc cells (approximately 2×10^6 cells) were suspended in 10 μl of PBS (phosphate buffered saline) and 10 μl of Matrigel (BD Biosciences, San Jose, CA, USA), and a 29 G needle attached to a 0.5 ml insulin syringe (BD Biosciences, San Jose, CA, USA) was used to inject the same through the intercostal space to a depth of 2 mm in the left lung. The incision in the skin was closed with a 5-0 polypropylene suture, and the mice were rested on a warm carpet until they were fully recovered.
One week after the tumor transplantation, tumor establishment was confirmed using an IVIS imaging system (Xenogen Corp., Alameda, CA, USA). In the in-vivo imaging, 100 μl of VivoGlo luciferin (30 mg/ml) was administered via the tail vein, and bioluminescence imaging was recorded 5 minutes after the administration. Mice with established tumors were then divided into two groups, a control ASO inhalation group (n=7) and an ARL4C ASO inhalation group (n=9) in such a manner that the groups had identical IVIS signal intensities. […] When 21 days elapsed after the tumor transplantation, tumor sizes were determined using the IVIS imaging system, and then the mice were euthanized for histological analysis. […]
In an experiment in a xenograft orthotopic transplantation model using lung cancer cells, A549/Luc cells were transplanted into the left lung (day 0), and transbronchial administration of control ASO and ARL4C ASO-1316 was carried out when 7, 11 and 15 days had elapsed after the transplantation. […] In addition, when 7 and 21 days had elapsed since the transplantation, luminescence intensities of luciferase emitted from tumors in the left lungs in the mice were measured using software of IVIS/Kodak; the results are shown in the right part of (a) of FIG. 11. […]

With “ASO-1316: 15-mer AmNA/phosphorothioate ASO targeting ARL4C, base sequence SEQ ID NO: 1 gcatacctcaggtaa; Table 1 SEQ ID NO 13 (antisense GCATACCTCAGGTAA; AmNA and phosphorothioate modified, pattern not given here)”, the “proliferation of A549/Luc cells in left lung (luciferase luminescence intensity)” value (200 μg/body transbronchially on days 7, 11 and 15, days 7 and 21) is listed as “inhibited A549/Luc cells from proliferating”. Where the note is “day 21”, the “Ki-67-positive cells in left lung tumor” value is reported as “Ki-67-positive cells decreased in number” and the “expression of ARL4C in left lung tumor (immunostaining)” value is “decreased expression of ARL4C”.
